# Results: patent US20080021026A1, “BENZOTHIOPHENE INHIBITORS OF RHO KINASE” (priority 2006, published 2008)
# Like-named read-outs stand apart in the source and are kept apart here.
# Target: T1, recombinant N-terminal GST-tagged human Rho kinase 2 (ROCK2, amino acids 1-552) (Homo sapiens, UniProt O75116)
# T1 construct: ROCK2, amino acids 1-552; purchased Invitrogen Inc. PV3759
# Assay: In vitro Rho kinase assay (luciferase-based ATP consumption), ROCK2
# Format: biochemical
# Summary of the method: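 GST-ROCK2 (aa 1-552, 0.82 μg/ml) with 100 μg/ml S6 peptide and 3 µM ATP in Tris pH 7.5 buffer with MgCl2/CaCl2/EGTA/BSA, compound added just after reaction start, 2 h at 30 °C. Remaining ATP read by luciferase luminescence. Efficacy expressed as percentage of H-1152P positive control.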
# [1] = recombinant GST-tagged human ROCK2, luciferase-based ATP consumption, read-out: ROCK2 IC50
# T1 sequence (O75116 1-552): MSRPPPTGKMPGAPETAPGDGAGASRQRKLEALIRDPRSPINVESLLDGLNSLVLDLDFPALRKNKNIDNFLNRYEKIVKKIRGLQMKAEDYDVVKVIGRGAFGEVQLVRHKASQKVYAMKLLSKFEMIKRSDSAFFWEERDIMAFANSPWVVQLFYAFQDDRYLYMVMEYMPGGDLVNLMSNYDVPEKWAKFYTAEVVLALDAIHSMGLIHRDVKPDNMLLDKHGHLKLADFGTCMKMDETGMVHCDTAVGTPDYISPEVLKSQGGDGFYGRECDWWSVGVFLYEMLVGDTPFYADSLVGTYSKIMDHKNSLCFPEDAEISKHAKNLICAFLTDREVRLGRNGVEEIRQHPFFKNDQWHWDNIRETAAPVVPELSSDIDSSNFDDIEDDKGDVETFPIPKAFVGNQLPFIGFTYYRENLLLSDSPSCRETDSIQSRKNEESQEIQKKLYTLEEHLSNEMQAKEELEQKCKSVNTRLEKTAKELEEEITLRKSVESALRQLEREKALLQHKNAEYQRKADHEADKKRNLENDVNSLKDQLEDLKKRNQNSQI
SMILES,IC50 [1] [µM],"IC50 (ROCK2 IC50, recombinant GST-tagged human ROCK2, luciferase-based ATP consumption) [µM]"
"Cc1c(-c2ccnc(N)n2)sc2ccc(C(=O)NCCN3CCCC3)cc12 [Example 372, Cc1c(sc2ccc(cc12)C(═O)NCCN3CCCC3)-c4ccnc(N)n4]",< 5,
"Cc1c(-c2ccnc(N)n2)sc2ccc(C(=O)NCc3ccco3)cc12 [Example 355, Cc1c(sc2ccc(cc12)C(═O)NCc3ccco3)-c4ccnc(N)n4]",< 5,
"Cc1ccc(CCNC(=O)c2ccc3sc(-c4ccnc(N)n4)c(C)c3c2)cc1 [Example 392, Cc1ccc(CCNC(═O)c2ccc3sc(c(C)c3c2)-c4ccnc(N)n4)cc1]",> 5,
"Cc1ccc(CNC(=O)c2ccc3sc(-c4ccnc(N)n4)c(C)c3c2)cc1 [Example 380, Cc1ccc(CNC(═O)c2ccc3sc(c(C)c3c2)-c4ccnc(N)n4)cc1]",< 5,
"CCCN(C)C(=O)c1ccc2sc(-c3ccnc(N)n3)c(C)c2c1 [Example 463, CCCN(C)C(═O)c1ccc2sc(c(C)c2c1)-c3ccnc(N)n3]",< 5,
"Cc1c(-c2ccnc(N)n2)sc2ccc(C(=O)NC3CCCc4ccccc43)cc12 (stereo not shown) [Example 417, Cc1c(sc2ccc(cc12)C(═O)NC3CCCc4ccccc34)-c5ccnc(N)n5]",< 5,
"COc1ccc(CCNC(=O)c2ccc3sc(-c4ccnc(N)n4)c(C)c3c2)cc1 [Example 423, COc1ccc(CCNC(═O)c2ccc3sc(c(C)c3c2)-c4ccnc(N)n4)cc1]",< 5,
"Cc1c(-c2ccnc(N)n2)sc2ccc(C(=O)NCCc3ccc(S(N)(=O)=O)cc3)cc12 [Example 454, Cc1c(sc2ccc(cc12)C(═O)NCCc3ccc(cc3)S(N)(═O)═O)-c4ccnc(N)n4]",< 5,
"C#CCN(Cc1ccc(Cl)cc1Cl)C(=O)c1ccc2sc(-c3ccnc(N)n3)c(C)c2c1 [Example 559, Cc1c(sc2ccc(cc12)C(═O)N(CC#C)Cc3ccc(Cl)cc3Cl)-c4ccnc(N)n4]",,> 5
"C#CCN(C)C(=O)c1ccc2sc(-c3ccnc(N)n3)c(C)c2c1 [Example 461, CN(CC#C)C(═O)c1ccc2sc(c(C)c2c1)-c3ccnc(N)n3]",< 5,
"COC[C@@H]1CCCN1C(=O)c1ccc2sc(-c3ccnc(N)n3)c(C)c2c1 [Example 487, COC[C@@H]1CCCN1C(═O)c2ccc3sc(c(C)c3c2)-c4ccnc(N)n4]",> 5,
"Cc1c(-c2ccnc(N)n2)sc2ccc(C(=O)NC3CCc4ccccc43)cc12 (stereo not shown) [Example 391, Cc1c(sc2ccc(cc12)C(═O)NC3CCc4ccccc34)-c5ccnc(N)n5]",< 5,
"Cc1c(-c2ccnc(N)n2)sc2ccc(C(=O)N(C)C(Cc3ccccc3)c3ccccc3)cc12 (stereo not shown) [Example 557, CN(C(Cc1ccccc1)c2ccccc2)C(═O)c3ccc4sc(c(C)c4c3)-c5ccnc(N)n5]",> 5,
"Cc1c(-c2ccnc(N)n2)sc2ccc(C(=O)N3CCN(CCc4ccccc4)CC3)cc12 [Example 536, Cc1c(sc2ccc(cc12)C(═O)N3CCN(CC3)CCc4ccccc4)-c5ccnc(N)n5]",< 5,
"Cc1c(-c2ccnc(N)n2)sc2ccc(C(=O)N3C(C)CCCC3C)cc12 (stereo not shown) [Example 483, CC1CCCC(C)N1C(═O)c2ccc3sc(c(C)c3c2)-c4ccnc(N)n4]",> 5,
"COc1ccc(OC)c(CCNC(=O)c2ccc3sc(-c4ccnc(N)n4)c(C)c3c2)c1 [Example 449, COc1ccc(OC)c(CCNC(═O)c2ccc3sc(c(C)c3c2)-c4ccnc(N)n4)c1]",< 5,
"Cc1c(-c2ccnc(N)n2)sc2ccc(C(=O)N3CCN(c4ccc(C(F)(F)F)cc4)CC3)cc12 [Example 565, Cc1c(sc2ccc(cc12)C(═O)N3CCN(CC3)c4ccc(cc4)C(F)(F)F)-c5ccnc(N)n5]",> 5,
"Cc1c(-c2ccnc(N)n2)sc2ccc(C(=O)N(C)CC(O)c3ccc(O)cc3)cc12 (stereo not shown) [Example 518, CN(CC(O)c1ccc(O)cc1)C(═O)c2ccc3sc(c(C)c3c2)-c4ccnc(N)n4]",< 5,
"Cc1c(-c2ccnc(N)n2)sc2ccc(C(=O)N3CCSC3)cc12 [Example 471, Cc1c(sc2ccc(cc12)C(═O)N3CCSC3)-c4ccnc(N)n4]",< 5,
"Cc1ccccc1CNC(=O)c1ccc2sc(-c3ccnc(N)n3)c(C)c2c1 [Example 379, Cc1ccccc1CNC(═O)c2ccc3sc(c(C)c3c2)-c4ccnc(N)n4]",< 5,
"Cc1c(-c2ccnc(N)n2)sc2ccc(C(=O)NCCCN(C)c3ccccc3)cc12 [Example 437, CN(CCCNC(═O)c1ccc2sc(c(C)c2c1)-c3ccnc(N)n3)c4ccccc4]",< 5,
"CCCCN(C)C(=O)c1ccc2sc(-c3ccnc(N)n3)c(C)c2c1 [Example 469, CCCCN(C)C(═O)c1ccc2sc(c(C)c2c1)-c3ccnc(N)n3]",< 5,
"CCOC(=O)N1CCC(NC(=O)c2ccc3sc(-c4ccnc(N)n4)c(C)c3c2)CC1 [Example 442, CCOC(═O)N1CCC(CC1)NC(═O)c2ccc3sc(c(C)c3c2)-c4ccnc(N)n4]",< 5,
"Cc1c(-c2ccnc(N)n2)sc2ccc(C(=O)N3CCC(O)(c4ccc(Cl)cc4)CC3)cc12 [Example 558, Cc1c(sc2ccc(cc12)C(═O)N3CCC(O)(CC3)c4ccc(Cl)cc4)-c5ccnc(N)n5]",> 5,

# Now from value to molecule, other results behind:
IC50 [1] [µM],SMILES,"IC50 (ROCK2 IC50, recombinant GST-tagged human ROCK2, luciferase-based ATP consumption) [µM]"
< 5,"Cc1c(-c2ccnc(N)n2)sc2ccc(C(=O)N(CCCO)Cc3ccccn3)cc12 [Example 517, Cc1c(sc2ccc(cc12)C(═O)N(CCCO)Cc3ccccn3)-c4ccnc(N)n4]",
< 5,"CCN(CCO)C(=O)c1ccc2sc(-c3ccnc(N)n3)c(C)c2c1 [Example 470, CCN(CCO)C(═O)c1ccc2sc(c(C)c2c1)-c3ccnc(N)n3]",
< 5,"Cc1c(-c2ccnc(N)n2)sc2ccc(C(=O)NCCCc3ccccc3)cc12 [Example 397, Cc1c(sc2ccc(cc12)C(═O)NCCCc3ccccc3)-c4ccnc(N)n4]",
< 5,"Cc1c(-c2ccnc(N)n2)sc2ccc(C(=O)NCC#N)cc12 [Example 332, Cc1c(sc2ccc(cc12)C(═O)NCC#N)-c3ccnc(N)n3]",
< 5,"CCOc1ccccc1CNC(=O)c1ccc2sc(-c3ccnc(N)n3)c(C)c2c1 [Example 425, CCOc1ccccc1CNC(═O)c2ccc3sc(c(C)c3c2)-c4ccnc(N)n4]",
< 5,"Cc1c(-c2ccnc(N)n2)sc2ccc(C(=O)N3Cc4ccccc4C3)cc12 [Example 491, Cc1c(sc2ccc(cc12)C(═O)N3Cc4ccccc4C3)-c5ccnc(N)n5]",
< 5,"CCCNC(=O)c1ccc2sc(-c3ccnc(N)n3)c(C)c2c1 [Example 335, CCCNC(═O)c1ccc2sc(c(C)c2c1)-c3ccnc(N)n3]",
< 5,"Cc1c(-c2ccnc(N)n2)sc2ccc(Nc3cccc(O)c3)cc12 [Example 52, 3-(2-(2-Aminopyrimidin-4-yl)-3-methylbenzo[b]thiophen-5-ylamino)phenol]",
< 5,"Cc1c(-c2ccnc(N)n2)sc2ccc(C(=O)NCc3cccnc3)cc12 [Example 364, Cc1c(sc2ccc(cc12)C(═O)NCc3cccnc3)-c4ccnc(N)n4]",
> 5,"Cc1ccc(C)c(N2CCN(C(=O)c3ccc4sc(-c5ccnc(N)n5)c(C)c4c3)CC2)c1 [Example 539, Cc1ccc(C)c(c1)N2CCN(CC2)C(═O)c3ccc4sc(c(C)c4c3)-c5ccnc(N)n5]",
< 5,"Cc1c(-c2ccnc(N)n2)sc2ccc(C(=O)N3CCN(c4ccc(O)cc4)CC3)cc12 [Example 523, Cc1c(sc2ccc(cc12)C(═O)N3CCN(CC3)c4ccc(O)cc4)-c5ccnc(N)n5]",
< 5,"COc1ccccc1CCNC(=O)c1ccc2sc(-c3ccnc(N)n3)c(C)c2c1 [Example 424, COc1ccccc1CCNC(═O)c2ccc3sc(c(C)c3c2)-c4ccnc(N)n4]",
> 5,"Cc1ccc(CNC(=O)c2ccc3sc(-c4ccnc(N)n4)c(C)c3c2)cc1C [Example 398, Cc1ccc(CNC(═O)c2ccc3sc(c(C)c3c2)-c4ccnc(N)n4)cc1C]",
< 5,"Cc1c(-c2ccnc(N)n2)sc2ccc(C(=O)NCCCn3ccnc3)cc12 [Example 385, Cc1c(sc2ccc(cc12)C(═O)NCCCn3ccnc3)-c4ccnc(N)n4]",
< 5,"Cc1c(-c2ccnc(N)n2)sc2ccc(C(=O)N3CC(C)CC(C)C3)cc12 (stereo not shown) [Example 481, CC1CC(C)CN(C1)C(═O)c2ccc3sc(c(C)c3c2)-c4ccnc(N)n4]",
< 5,"Cc1c(-c2ccnc(N)n2)sc2ccc(C(=O)NCCN(C(C)C)C(C)C)cc12 [Example 416, CC(C)N(CCNC(═O)c1ccc2sc(c(C)c2c1)-c3ccnc(N)n3)C(C)C]",
< 5,"Cc1c(-c2ccnc(N)n2)sc2ccc(C(=O)NCC3CC3)cc12 [Example 340, Cc1c(sc2ccc(cc12)C(═O)NCC3CC3)-c4ccnc(N)n4]",
> 5,"Cc1c(-c2ccnc(N)n2)sc2ccc(C(=O)NC(C)CC(C)C)cc12 (stereo not shown) [Example 359, CC(C)CC(C)NC(═O)c1ccc2sc(c(C)c2c1)-c3ccnc(N)n3]",
< 5,"CCN(Cc1ccccc1)C(=O)c1ccc2sc(-c3ccnc(N)n3)c(C)c2c1 [Example 499, CCN(Cc1ccccc1)C(═O)c2ccc3sc(c(C)c3c2)-c4ccnc(N)n4]",
> 5,"Cc1ccc([C@H](C)NC(=O)c2ccc3sc(-c4ccnc(N)n4)c(C)c3c2)cc1 [Example 394, C[C@H](NC(═O)c1ccc2sc(c(C)c2c1)-c3ccnc(N)n3)c4ccc(C)cc4]",
> 5,"Cc1c(-c2ccnc(N)n2)sc2ccc(C(=O)N3CCN(c4ccc(Cl)c(Cl)c4)CC3)cc12 [Example 567, Cc1c(sc2ccc(cc12)C(═O)N3CCN(CC3)c4ccc(Cl)c(Cl)c4)-c5ccnc(N)n5]",
< 5,"Cc1c(-c2ccnc(N)n2)sc2ccc(C(=O)NCc3ccccn3)cc12 [Example 365, Cc1c(sc2ccc(cc12)C(═O)NCc3ccccn3)-c4ccnc(N)n4]",
> 5,"COc1cccc(N2CCN(C(=O)c3ccc4sc(-c5ccnc(N)n5)c(C)c4c3)CC2)c1 [Example 542, COc1cccc(c1)N2CCN(CC2)C(═O)c3ccc4sc(c(C)c4c3)-c5ccnc(N)n5]",
< 5,"CCN(CC)CCNC(=O)c1ccc2sc(-c3ccnc(N)n3)c(C)c2c1 [Example 374, CCN(CC)CCNC(═O)c1ccc2sc(c(C)c2c1)-c3ccnc(N)n3]",
> 5,"Cc1c(-c2ccnc(N)n2)sc2ccc(C(=O)NC3CCCCC3C)cc12 (stereo not shown) [Example 371, CC1CCCCC1NC(═O)c2ccc3sc(c(C)c3c2)-c4ccnc(N)n4]",
